pIC50: −log10 of the molar value. Some results are limits rather than exact numbers.

As usually defined, the pIC50 is the IC50 on a negative log10 scale, so that one unit is a factor of ten.

The target of the assay is human PD-L1 / Human PD-1 (Homo sapiens (Human), UniProt Q9NZQ7). As to the kind of experiment: Enzyme-Linked Immunosorbent Assay (ELISA), PD-1/PD-L1 binding. The note with it: Table 3; plate-coated human PD-L1, biotinylated human PD-1; read-out: ELISA IC50. In short, it runs like this: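 Human PD-L1 coated at 1 μg/mL overnight at 4° C; samples diluted 1:5 and incubated with human PD-1 and biotin (0.3 μg/mL) for 1 h at 37° C. Bound PD-1 detected with streptavidin-HRP and TMB (20 min, 37° C), acid-stopped, absorbance at 450 nm.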
Sequence of human PD-L1 / Human PD-1 (Q9NZQ7 19-239): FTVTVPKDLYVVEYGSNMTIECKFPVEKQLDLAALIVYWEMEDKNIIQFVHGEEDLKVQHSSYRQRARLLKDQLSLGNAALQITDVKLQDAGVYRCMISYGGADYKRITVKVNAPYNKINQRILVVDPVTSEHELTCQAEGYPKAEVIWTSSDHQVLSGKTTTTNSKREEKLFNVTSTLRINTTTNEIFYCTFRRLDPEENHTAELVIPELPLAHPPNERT
(In general: ELISA stands for enzyme-linked immunosorbent assay.)
Regarding `Cn1nnc(-c2cncc(COc3cc(O[C@H]4CCc5c(-c6ccccc6F)cccc54)c(Cl)cc3CN[C@@H](CO)C(=O)O)c2)n1` [Example 3.101], the pIC50 was 6.30 to 7.00. As for `N#Cc1cncc(COc2cc(O[C@H]3CCc4c(-c5ccccc5F)cccc43)c(Cl)cc2CN[C@H](Cc2ccc(O)cc2)C(=O)O)c1` [Example 3.102], the figure is 4.70 to 6.30; as for `N#Cc1cncc(COc2cc(O[C@H]3CCc4c(-c5ccccc5F)cccc43)c(Cl)cc2CN[C@@H](Cc2c[nH]cn2)C(=O)O)c1` [Example 3.103], 6.30 to 7.00; as for `N#Cc1cncc(COc2cc(O[C@H]3CCc4c(-c5ccccc5F)cccc43)c(Cl)cc2CN[C@H](CC(N)=O)C(=O)O)c1` [Example 3.104], greater than 7.00. As for `N#Cc1cncc(COc2cc(O[C@H]3CCc4c(-c5ccccc5F)cccc43)c(Cl)cc2CN[C@@H](CC(=O)O)C(=O)O)c1` [Example 3.105], the figure is 6.30 to 7.00; as for `Cn1nccc1-c1cncc(COc2cc(O[C@H]3CCc4c(-c5ccccc5F)cccc43)c(Cl)cc2CN[C@@H](CO)C(=O)O)c1` [Example 3.106], 6.30 to 7.00. With `N#Cc1cncc(COc2cc(O[C@H]3CCc4c(-c5ccc6c(c5)OC(F)(F)O6)cccc43)c(Cl)cc2CN[C@@H](CO)C(=O)O)c1` [Example 3.107], the negative-log IC50 (pIC50) is 4.70 to 6.30. Regarding `O=C(O)[C@H](CO)NCc1cc(Cl)c(O[C@H]2CCc3c(-c4ccccc4F)cccc32)cc1OCc1cncc(-c2nn[nH]n2)c1` [Example 3.108], the pIC50 was 6.30 to 7.00. With `COC(=O)[C@H](CO)NC(C)c1cc(Cl)c(O[C@H]2CCc3c(-c4ccccc4F)cccc32)cc1OCc1cncc(C#N)c1` (stereo partly drawn) [Example 3.109] the figure was 4.70 to 6.30; with `N#Cc1cncc(COc2cc(O[C@H]3CCc4c(-c5ccc6c(c5F)OCO6)cccc43)c(Cl)cc2CN[C@@H](CO)C(=O)O)c1` [Example 3.110], greater than 7.00; with `CC(N[C@@H](CO)C(=O)O)c1cc(Cl)c(O[C@H]2CCc3c(-c4ccc(O)cc4)cccc32)cc1OCc1cncc(C#N)c1` (stereo partly drawn) [Example 3.111], 4.70 to 6.30. Turning to `CC(N[C@@H](CO)C(=O)O)c1cc(Cl)c(O[C@H]2CCc3c(C4=CCCC4)cccc32)cc1OCc1cncc(C#N)c1` (stereo partly drawn) [Example 3.112], the pIC50 was 6.30 to 7.00. With `CC(N[C@@H](CO)C(=O)O)c1cc(Cl)c(O[C@H]2CCc3c(-c4cccc5c4OCCO5)cccc32)cc1OCc1cncc(C#N)c1` (stereo partly drawn) [Example 3.113] the figure was 4.70 to 6.30; with `N#Cc1cncc(COc2cc(O[C@H]3CCc4c(-c5ccccc5F)cccc43)c(Cl)cc2CN2CC(O)C2)c1` [Example 3.114], 4.70 to 6.30. As to `COCc1ccccc1-c1cccc2c1CC[C@@H]2Oc1cc(OCc2cncc(C#N)c2)c(CN[C@@H](CO)C(=O)O)cc1Cl` [Example 3.115], the pIC50 is 4.70 to 6.30.

Regarding `C[C@@H](O)[C@@H](CC(=O)O)NCc1cc(Cl)c(O[C@H]2CCc3c(-c4ccccc4F)cccc32)cc1OCc1cncc(C#N)c1` [Example 3.116], the negative logarithm of the IC50 (pIC50) was 4.70 to 6.30. With `N#Cc1cncc(COc2cc(O[C@H]3CCc4c(C5=CCCCC5)cccc43)c(Cl)cc2CN[C@@H](CO)C(=O)O)c1` [Example 3.117] the figure was greater than 7.00; with `N#Cc1cncc(COc2cc(O[C@H]3CCc4c(-c5cccc(O)c5)cccc43)c(Cl)cc2CN[C@@H](CO)C(=O)O)c1` [Example 3.118], greater than 7.00. With `C[C@@](CO)(NCc1cc(Cl)c(O[C@@H]2CCc3c(-c4ccccc4F)cccc32)cc1OCc1cncc(C#N)c1)C(=O)O` [Example 3.119] the figure was greater than 7.00. For the compound `N#Cc1cncc(COc2cc(O[C@@H]3CCc4c(-c5ccccc5F)cccc43)c(Cl)cc2CN[C@@H](CO)C(=O)O)c1` [Example 3.120], the pIC50 was greater than 7.00. With `N#Cc1cncc(COc2cc(O[C@H]3CCc4c(-c5cccc(CO)c5)cccc43)c(Cl)cc2CN[C@@H](CO)C(=O)O)c1` [Example 3.121], the negative-log IC50 (pIC50) is 4.70 to 6.30. As for `N#Cc1cncc(COc2cc(O[C@H]3CCc4c(-c5ccc6c(c5)OCO6)cccc43)c(Cl)cc2CN[C@@H](CO)C(=O)O)c1` [Example 3.122], the figure is greater than 7.00.

For the compound `N#Cc1cncc(COc2cc(O[C@H]3CCc4c(-c5ccc(CO)cc5)cccc43)c(Cl)cc2CN[C@@H](CO)C(=O)O)c1` [Example 3.123], the pIC50 was 4.70 to 6.30. With `COc1cccc(-c2cccc3c2CC[C@@H]3Oc2cc(OCc3cncc(C#N)c3)c(CN3CCC(O)C(CO)C3)cc2Cl)c1Cl` (stereo partly drawn) [Example 3.124] the figure was 6.30 to 7.00; with `N#Cc1cncc(COc2cc(O[C@H]3CCc4c(-c5ccc6ccccc6c5)cccc43)c(Cl)cc2CN[C@@H](CO)C(=O)O)c1` [Example 3.125], 4.70 to 6.30; with `N#Cc1cncc(COc2cc(O[C@H]3CCc4c(-c5cccc6ccccc56)cccc43)c(Cl)cc2CN[C@@H](CO)C(=O)O)c1` [Example 3.126], 6.30 to 7.00. Consider `N#Cc1cncc(COc2cc(O[C@H]3CCc4c(-c5ccccc5CO)cccc43)c(Cl)cc2CN[C@@H](CO)C(=O)O)c1` [Example 3.127], for which the negative-log IC50 (pIC50) was greater than 7.00.

For the compound `N#Cc1cncc(COc2cc(O[C@H]3CCc4c(-c5ccccc5F)cccc43)c(Cl)cc2CNCCO)c1` [Example 3.128], the pIC50 is greater than 7.00. With `N#Cc1cncc(COc2cc(O[C@H]3CCc4c(-c5ccccc5F)cccc43)c(Cl)cc2CNC(CO)CO)c1` [Example 3.129] the figure was greater than 7.00; with `N#Cc1cncc(COc2cc(O[C@H]3CCc4c(-c5ccccc5F)cccc43)c(Cl)cc2CNC(CO)(CO)CO)c1` [Example 3.130], greater than 7.00; with `N#Cc1cncc(COc2cc(O[C@H]3CCc4c(-c5ccccc5F)cccc43)c(Cl)cc2CN2CC[C@H](C(=O)O)C2)c1` [Example 3.131], greater than 7.00. With `N#Cc1cncc(COc2cc(O[C@H]3CCc4c(-c5ccccc5F)cccc43)c(Cl)cc2CN2CC[C@@H](C(=O)O)C2)c1` [Example 3.132], the negative-log IC50 (pIC50) was greater than 7.00. As for `CCOc1cc(NC2CCc3c(-c4ccccc4F)cccc32)c(Cl)cc1CN[C@@H](CO)C(=O)O` (stereo partly drawn) [Example 3.133], the figure is 6.30 to 7.00; as for `CC(O)C(NCc1cc(Cl)c(O[C@H]2CCc3c(-c4ccccc4F)cccc32)cc1OCc1cncc(C#N)c1)c1nnn[nH]1` (stereo partly drawn) [Example 3.134], greater than 7.00; as for `C[C@@H](O)[C@H](NCc1cc(Cl)c(O[C@H]2CCc3c(-c4ccccc4F)cccc32)cc1OCc1cncc(C#N)c1)C(=O)OC(C)(C)C` [Example 3.135], 4.70 to 6.30.

Consider `CC(C)(C)OC(=O)[C@H](CO)NCc1cc(Cl)c(O[C@H]2CCc3c(-c4ccccc4F)cccc32)cc1OCc1cncc(C#N)c1` [Example 3.136], for which the negative logarithm of the IC50 (pIC50) was 4.70 to 6.30.

(Values after US10639284B2, “Immunomodulator compounds” (CHEMOCENTRYX, INC., priority 2016, dated 2020).)
